The subject of one assay is MCF7. The experiment in a line: Antiproliferative activity against human MCF7 cells after 48 hrs by MTT assay. It is filed as functional, cell-based. For orientation: Tetrazolium assays rely on reduction of a dye to a coloured formazan, in cell work by metabolically active cells.
For another assay, the system named is MDA-MB-231. As to the kind of experiment: Antiproliferative activity against human MDA-MB-231 cells after 48 hrs by MTT assay. The class given is functional, cell-based.
Setting [1] is: Homo sapiens, MCF7, 48 h, read-out: IC50.
Setting [2] is: Homo sapiens, MDA-MB-231, 48 h, read-out: IC50.

A value given as a limit tells only on which side of the number the result lay.

Take `CCCc1cc(=O)oc2cc(I)c3c(c12)OC(C)(C)C=C3`: the figures for the IC50 with MCF7 (setting [1]) and with MDA-MB-231 (mda-mb-231) were 13.7 µM and “Not Active”, respectively.

In the case of `O=c1cc(-c2ccccc2)c2c(O)cc(-c3cccc4c3Sc3ccccc3S4)cc2o1`, the Activity result in the assay with MCF7 and in the assay on MDA-MB-231 was “Dose-dependent effect” throughout. Also, the values for the IC50 with MCF7 (setting [1]) and in the assay on MDA-MB-231 (setting [2]) were 14.2 µM and 9.3 µM, respectively.

As for `CCCc1cc(=O)oc2cc(-c3cc4ccccc4s3)c3c(c12)OC(C)(C)C=C3`, the IC50 – broadly, the concentration that gives 50% inhibition – in the assay with MCF7 (setting [1]) was 22.8 µM; with MDA-MB-231 (mda-mb-231), “Not Active”.

For `CCCc1cc(=O)oc2cc(I)cc(O)c12`, the IC50 with MCF7 (setting [1]) is 26.8 µM; in the assay with MDA-MB-231 (mda-mb-231) it was “Not Active”.

Consider `CCCc1cc(=O)oc2cc(-c3ccc(NC(=O)CCC(=O)O)cc3)c3c(c12)OC(C)(C)C=C3`, for which the IC50 result with MCF7 (mcf7) and in the assay on MDA-MB-231 (mda-mb-231) was “Not Active” in each case.

In the case of `O=c1cc(-c2ccccc2)c2c(O)cc(-c3cc4ccccc4s3)cc2o1`, the Activity entry in the assay on MCF7 and in the assay with MDA-MB-231 was “Dose-dependent effect” in each case. Besides, the IC50 in the assay on MCF7 (setting [1]) is 7.6 µM; in the assay on MDA-MB-231 (setting [2]) it was 10.6 µM.

On to `CCCc1cc(=O)oc2cc(-c3ccc(NS(C)(=O)=O)cc3)c3c(c12)OC(C)(C)C=C3`, for which the Activity entry in the assay on MCF7 and in the assay on MDA-MB-231 was “Dose-dependent effect” each time. The IC50 with MCF7 (setting [1]) stood at 3.3 µM; in the assay with MDA-MB-231 (setting [2]), 27.2 µM.

Consider `Cc1cc(=O)oc2cc(I)cc(O)c12`, for which the half-inhibitory concentration (IC50) with MCF7 (setting [1]) is 18.3 µM; in the assay on MDA-MB-231 (mda-mb-231), “Not Active”.

With `Cc1cc(=O)oc2cc(-c3ccc(NC(=O)CCC(=O)O)cc3)c3c(c12)OC(C)(C)C=C3`, the IC50 entry in the assay with MCF7 (mcf7) and in the assay with MDA-MB-231 (mda-mb-231) was “Not Active” each time.

Consider `CC1(C)C=Cc2c(-c3cccc4c3Sc3ccccc3S4)cc3oc(=O)cc(-c4ccccc4)c3c2O1`, for which the Activity result in the assay with MCF7 and in the assay on MDA-MB-231 was “Dose-dependent effect” throughout. The IC50 with MCF7 (setting [1]) amounted to 7.2 µM; in the assay on MDA-MB-231 (setting [2]), 33.6 µM.

Take `CCCc1cc(=O)oc2cc(-c3cc4ccccc4s3)cc(O)c12`: the IC50 was determined as 22.3 µM with MCF7 (setting [1]) and 50 µM with MDA-MB-231 (setting [2]).

Regarding `CC1(C)C=Cc2c(I)cc3oc(=O)cc(-c4ccccc4)c3c2O1`, the results for the IC50 with MCF7 (setting [1]) and in the assay with MDA-MB-231 (mda-mb-231) were 54.3 µM and “Not Active”, respectively.

Turning to `CCCc1cc(=O)oc2cc(-c3cccc4c3Sc3ccccc3S4)cc(O)c12`, the Activity entry in the assay on MCF7 and in the assay with MDA-MB-231 was “Dose-dependent effect” throughout. Moreover, the concentration for half-maximal inhibition (IC50) in the assay with MCF7 (setting [1]) came out at 14.4 µM; in the assay on MDA-MB-231 (setting [2]), 7.9 µM.

For `CC1(C)C=Cc2c(-c3ccc(NC(=O)CCC(=O)O)cc3)cc3oc(=O)cc(-c4ccccc4)c3c2O1`, the concentration for half-maximal inhibition (IC50) result with MCF7 (mcf7) and with MDA-MB-231 (mda-mb-231) was “Not Active” throughout.

In the case of `Cc1cc(=O)oc2cc(-c3ccc(NS(C)(=O)=O)cc3)c3c(c12)OC(C)(C)C=C3`, the Activity entry in the assay on MCF7 and in the assay with MDA-MB-231 was “Dose-dependent effect” in each case. Besides, the IC50 in the assay on MCF7 (setting [1]) was determined as 6.5 µM; in the assay with MDA-MB-231 (setting [2]) it was 61.2 µM.

With `CC1(C)C=Cc2c(-c3ccc(NS(C)(=O)=O)cc3)cc3oc(=O)cc(-c4ccccc4)c3c2O1`, the Activity entry with MCF7 and in the assay on MDA-MB-231 was “Dose-dependent effect” in each case. Besides, the IC50 was 5.3 µM in the assay with MCF7 (setting [1]) and 28.9 µM in the assay with MDA-MB-231 (setting [2]).

For `Cc1cc(=O)oc2cc(-c3cc4ccccc4s3)c3c(c12)OC(C)(C)C=C3`, the figures for the IC50 with MCF7 (setting [1]) and with MDA-MB-231 (setting [2]) were 25.4 µM and greater than 100 µM, respectively.

`O=c1cc(-c2ccccc2)c2c(O)cc(I)cc2o1`: the IC50 in the assay with MCF7 (setting [1]) is 25 µM; with MDA-MB-231 (mda-mb-231), “Not Active”.

On to `CC1(C)C=Cc2c(-c3cc4ccccc4s3)cc3oc(=O)cc(-c4ccccc4)c3c2O1`, for which the IC50 is 77.7 µM in the assay with MCF7 (setting [1]) and “Not Active” in the assay on MDA-MB-231 (mda-mb-231).

Consider `CCCc1cc(=O)oc2cc(-c3cccc4c3Sc3ccccc3S4)c3c(c12)OC(C)(C)C=C3`, for which the half-inhibitory concentration (IC50) in the assay on MCF7 (setting [1]) was greater than 100 µM; with MDA-MB-231 (mda-mb-231), “Not Active”.

As to `Cc1cc(=O)oc2cc(I)c3c(c12)OC(C)(C)C=C3`, the IC50 with MCF7 (setting [1]) is 30.7 µM; with MDA-MB-231 (mda-mb-231), “Not Active”.

The record behind these values is ChEMBL document CHEMBL1153483, “Synthesis and evaluation of novel substituted 5-hydroxycoumarin and pyranocoumarin derivatives exhibiting significant antiproliferative activity against breast cancer cell lines” (Bioorg Med Chem Lett, 2009).
